Test results published in paper PMC10820089, “Comparative Studies on the Photoreactivity, Efficacy, and Safety of Depigmenting Agents” (Pharmaceuticals, 2023).
Values joined by “and” are separate entries in the source; they are usually repeats but may differ in a detail not shown here. Equal entries are not always repeated. Where two headings read alike, the source gives them in different places.

Experiments:
[1] = ROS assay for photoreactivity (singlet oxygen and superoxide anion generation); type: physicochemical; conditions: for ROS assay: superoxide anion (O2^•−) / ROS assay: singlet oxygen (^1O2): 200 µM final concentration, mean ± SEM, n = 2; for ROS assay: superoxide anion (O2^•−): cut-off O2^•− ≥ 20 = photoreactive; for ROS assay: singlet oxygen (^1O2): cut-off ^1O2 ≥ 25 = photoreactive; for Photoreactivity classification from ROS assay: photoreactive if SO ≥ 25 and/or SA ≥ 20
Description: In addition to light absorption, the generation of reactive species from chemicals following the absorption of UV-visible light is seen as a key determinant for causing direct phototoxic reactions. The ROS assay can be used as an in chemico screening tool for evaluating the photoreactivity of chemicals. […] These depigmenting agents were tested at 200 μM (final concentration) to identify precipitation, coloration, or any other interference in the reaction mixture.
The ROS assay was performed as previously described in Aguiar et al. and the OECD ROS assay for photoreactivity protocol. Stock solutions of all substances were prepared at 10 mM in DMSO or 20 mM sodium phosphate buffer (NaPB, pH 7.4) and used within the same day. SO generation was detected by spectrophotometric measurement of RNO bleaching, followed by a decrease in the absorbance of RNO at 440 nm. SA generation was detected by observing the reduction of NBT to NBT^+, the formation of which can be monitored spectrophotometrically at 560 nm. The depigmenting agents were tested at a final concentration of 200 μM. When precipitation was observable (using a microscope) before light exposure, a lower concentration (20 μM) of the depigmenting agents was tested.
Photoreactivity of the test substances was evaluated according to the result (mean of triplicate determinations) from the ROS assay: a test substance was classified as a photoreactive substance when an SO value of 25 or more and/or an SA value of 20 or more was measured; in turn, it was considered to be a non-photoreactive substance when values of less than 25 for SO and less than 20 for SA were recorded.

[2] = UV-visible spectral analysis, molar extinction coefficient (MEC); type: physicochemical; conditions: at 290 nm; for Absorbance (10 µg mL^−1): 10 µg mL^−1 in methanol or 20 mM NaPB pH 7.4, 10 mm path length
Description: The phototoxic potential of chemicals is related to the photochemical properties of compounds, especially light absorption within the range 290–700 nm and the generation of reactive species following absorption of UV-visible light. […] The studied depigmenting agents contain in their molecular structures π systems (some of them conjugated), phenolic and/or hydroxyl, carbonyl, and amine groups. The absorption peaks observed in the UV-visible spectra can be assigned to π-π* and n-π* electronic transitions.
As the wavelength of maximum absorbance obtained for all compounds was below 290 nm, the MEC value for each depigmenting compound was calculated at this wavelength (Table 1).
UV-visible spectral analysis was conducted as previously described. The depigmenting agents were dissolved in methanol or 20 mM sodium phosphate buffer (NaPB, pH 7.4) at 10 μg/mL (final concentration). The UV-visible absorption spectra were analyzed using a Shimadzu UV-1700 spectrophotometer (Shimadzu Corp., Kyoto, Japan) and UV-transparent quartz cuvettes (Hellma, Müllheim, Germany) with a 10 mm path length. Each spectrum was corrected for solvent-specific baseline absorption. Molar extinction coefficients (MEC) were calculated using the highest absorption peaks between 290 and 700 nm at 10 μM.

tyrosinase = conditions: cited from earlier work; for IC50: read-out: IC50 tyrosinase inhibition (literature)
[3] = Cell viability (PrestoBlue) in B-16V melanocytes; conditions: mouse, B-16V melanocytes, IC50 for B-16V cell viability, 48 h treatment, 0–300 µM in DMSO
Description: (§1) Given that ABT is a glycosylated derivative of hydroquinone, there is a potential for the release of hydroquinone in vivo.
(§2) B-16V cells (DSMZ ACC-370, Braunschweig, Germany) were cultured in Dulbecco’s Modified Eagle’s Medium (DMEM) containing 3.7 g/L NaHCO3, 1.0 g/L d-glucose, 1 mM sodium pyruvate, and stable glutamine, supplemented with 10% (v/v) heat-inactivated fetal bovine serum (FBS), 50 U/mL penicillin, and 50 μg/mL streptomycin (all reagents from PAN-Biotech GmbH, Aidenbach, Germany). The cells were cultivated at 37 °C in a humidified atmosphere of 95% air and 5% CO2. Subculturing was performed twice a week, when the cells reached 70–80% confluence, through cell trypsinization with 0.25% Trypsin and 1 mM EDTA.4Na (PAN-Biotech GmbH, Aidenbach, Germany).
(§3) To evaluate cell viability, B-16V cells were seeded at a cell density of 3 × 10^4 cells/mL in 96-well plates and allowed to proliferate for 48 h. […] Then, PrestoBlue® reagent (Invitrogen, Waltham, MA, USA) was added to each well. When entering a living cell, the PrestoBlue® reagent is reduced from resazurin to resorufin, whose fluorescence is proportional to the number of metabolically active cells. Fluorescence was measured at an excitation/emission wavelength of 530/590 nm in an automated microplate reader (Synergy HT, Biotek Instruments Inc., Winooski, VT, USA).
(§4) GraphPad Prism 9.5.1 was used to fit non-linear regression to the data and calculate the IC50 values of depigmenting compounds for B-16V cell viability.

[4] = tested on: Tyrosinase from Agaricus bisporus; assay: Tyrosinase inhibition assay (L-tyrosine substrate); type: biochemical; conditions: for % Inhib (150 µM) of tyrosinase activity: 150 µM compound, n = 3
Description: Sodium phosphate monobasic monohydrate was obtained from Fluka (Buchs, Switzerland). Sodium phosphate dibasic anhydrous and methanol were obtained from Carlo Erba Reagents (Val-de-Reuil, France). Imidazole, p-nitroso dimethylaniline (RNO), and nitro blue tetrazolium chloride (NBT) were purchased from Alfa Aesar (Ward Hill, MA, USA).
Tyrosinase inhibition assays were carried out as described in Rosa et al.. Briefly, 25 μL of tyrosinase enzyme solution (135 U/mL), 25 μL of ten serial concentrations of the compounds (dissolved in 0.1 M phosphate buffer pH 6.8 containing no more than 2.5% DMSO, yielding final concentrations of 0.3–150 μM), and 100 μL phosphate buffer were mixed in a 96-well plate and incubated at 37 ± 2 °C for 20 min. Then, 50 μL of 1.66 mM of tyrosine solution in 0.1 M phosphate buffer (pH 6.8) were added. Enzyme activity was measured at 490 nm every 10 min for 30 min in a Bio-Rad Model 680 Microplate Reader (Bio-Rad Laboratories, Inc., Hercules, CA, USA). In cases where the samples were very active at the minimum concentration tested, lower concentration ranges were assayed. […] The experiments were conducted in triplicate. For each concentration, enzyme activity was calculated as a percentage of the velocities compared to those of the assay using buffer without any inhibitor. […] The type of inhibition and inhibition parameters of the compounds, i.e., the Km and Vmax, were determined by Lineweaver–Burk plot analysis using various concentrations of L-tyrosine.

B-16V melanocytes = assay: Cell viability (PrestoBlue) in B-16V melanocytes; conditions: 48 h treatment, 10–1000 µM in water
Description: as §1, §2, §3, §4

B16 mouse melanoma cells = conditions: cited from earlier work

| ROS assay: superoxide anion (O2^•−) [1] | ROS assay: singlet oxygen (^1O2) [1] | Photoreactivity classification from ROS assay [1] | MEC (molar extinction coefficient) [2] | Absorbance (10 µg mL^−1) [2] | % Inhib (150 µM) of tyrosinase activity [4] [%] | Compound | also measured |
| --- | --- | --- | --- | --- | --- | --- | --- |
| 13 ± 1 | 1 ± 0 | non-photoreactive | ε = 3471 L mol^−1 cm^−1 | 0.2088 | 100 | CCCCc1ccc(O)cc1O [4BR, 4-butylresorcinol] | IC50 (tyrosinase): 21 µM and 13.5 µM; IC50 at 48 h [3]: 97.6 ± 11.6 µM; Type of tyrosinase inhibition (Lineweaver-Burk plot) ([4]; Vmax constant, Km increases with inhibitor concentration): competitive inhibitor |
| 26 | 671 |  | ε = 2793 L mol^−1 cm^−1 | 0.1586 |  | O=C1O[C@H]([C@@H](O)CO)C(O)=C1O [AA, ascorbic acid, reference compound] | Effect on B-16V cell viability (B-16V melanocytes): did not interfere with cell viability; Prevention of chromophore formation in tyrosinase assay ([4]; 150 µM, cannot be interpreted uniquely as tyrosinase inhibition): 58.70% |
| 1 ± 0 | 1 ± 1 | non-photoreactive | ε = 1025 L mol^−1 cm^−1 | 0.0303 | 11.17 | O=C1O[C@H]([C@@H](O)CO)C(O)=C1O[C@H]1O[C@H](CO)[C@@H](O)[C@H](O)[C@H]1O [AA-2G, ascorbyl glucoside] |  |
| 0 ± 0 | 19 ± 1 | cannot be classified as photoreactive | ε = 2004 L mol^−1 cm^−1 | 0.0736 | 27.04 | OC[C@H]1O[C@H](Oc2ccc(O)cc2)[C@H](O)[C@@H](O)[C@@H]1O [ABT, α-arbutin] | Photoreactivity classification from ROS assay ([1]; listed as α-arbutin): non-photoreactive; Percentage of tyrosinase inhibition (literature) (tyrosinase; at 125 µM): ≈ 30% |
| inconclusive | inconclusive |  |  | 0.2203 | 52.59 | C=C[C@@](C)(/C=C/c1ccc(O)cc1)CCC=C(C)C [BAK, bakuchiol] | Solubility / precipitation in ROS assay reaction mixture ([1]; DMSO or 20 mM NaPB pH 7.4, reaction mixture for SO and SA, 200 µM, lowest concentration 20 µM): showed precipitation in the reaction mixture; IC50 (tyrosinase; at 1 mM of L-tyrosine): 37.2 ± 5.18 µM; IC50 at 48 h [3]: 43.4 ± 0.9 µM |
|  |  |  |  |  | 99.15 | O=c1cc(CO)occ1O [Kojic acid, kojic acid, reference compound] |  |
|  |  |  | ε = 380 L mol^−1 cm^−1 | 0.0242 | 13.20 | NC[C@H]1CC[C@H](C(=O)O)CC1 [TA, tranexamic acid, reference compound] | Effect on B-16V cell viability (B-16V melanocytes): did not interfere with cell viability |
|  |  |  |  |  |  | Oc1ccc(O)cc1 [hydroquinone] | Concentration achieving complete growth inhibition (B16 mouse melanoma cells): 1250 to 2500 ng/mL; Concentration initiating growth inhibition (B16 mouse melanoma cells): 625 ng/mL |
